Results: patent US11485731B2, “Compounds and methods useful in the treatment of a PRMT5-mediated disorder” (ARGONAUT THERAPEUTICS LIMITED, priority 2017, dated 2022)

Molecular target: human PRMT5/MEP50 (Homo sapiens (Human), UniProt O14744)
Assay: PRMT5 chemiluminescent assay
Assay type: biochemical
Settings: human PRMT5/MEP50 expressed in HEK293 cells; biotinylated histone peptides; Histone H4 monomethyl R3 antibody; chemiluminescent readout
Procedure: A PRMT5 chemiluminescent assay was used to measure the IC50 activity of PRMT5 of the compounds of Examples 1A to 7 above. Biotinylated histone peptides were synthesized and attached to 384-well plates. Compound serial dilutions were performed and added to the assay plate. Histone H4 monomethyl R3 antibody was obtained from Abcam. A master mix for each well was prepared and human PRMT5/MEP50 (expressed in HEK293 cells) diluted in assay buffer to a concentration of 5 ng/μL. The reaction was incubated and slowly rotated for 60 minutes at the point of PRMT5/MEP50 addition. The supernatant from the wells was removed and blocking buffer was added to each well and rotated for 10 minutes. The primary antibody was diluted and added to every well for 60 minutes, before it was removed and the wells washed. The horse raddish peroxidase (HRP)-coupled secondary antibody was diluted and added to each well with an incubation time of 30 minutes. The HRP chemiluminescent substrate was added to every well. The plate was read on a Flourstar Omega BMG Labtech instrument (Ortenberg, Germany) and the analysis of IC50 was performed using the Flourstar Omega BMG Labtech software.

Sequence of human PRMT5/MEP50 (O14744 whole entry): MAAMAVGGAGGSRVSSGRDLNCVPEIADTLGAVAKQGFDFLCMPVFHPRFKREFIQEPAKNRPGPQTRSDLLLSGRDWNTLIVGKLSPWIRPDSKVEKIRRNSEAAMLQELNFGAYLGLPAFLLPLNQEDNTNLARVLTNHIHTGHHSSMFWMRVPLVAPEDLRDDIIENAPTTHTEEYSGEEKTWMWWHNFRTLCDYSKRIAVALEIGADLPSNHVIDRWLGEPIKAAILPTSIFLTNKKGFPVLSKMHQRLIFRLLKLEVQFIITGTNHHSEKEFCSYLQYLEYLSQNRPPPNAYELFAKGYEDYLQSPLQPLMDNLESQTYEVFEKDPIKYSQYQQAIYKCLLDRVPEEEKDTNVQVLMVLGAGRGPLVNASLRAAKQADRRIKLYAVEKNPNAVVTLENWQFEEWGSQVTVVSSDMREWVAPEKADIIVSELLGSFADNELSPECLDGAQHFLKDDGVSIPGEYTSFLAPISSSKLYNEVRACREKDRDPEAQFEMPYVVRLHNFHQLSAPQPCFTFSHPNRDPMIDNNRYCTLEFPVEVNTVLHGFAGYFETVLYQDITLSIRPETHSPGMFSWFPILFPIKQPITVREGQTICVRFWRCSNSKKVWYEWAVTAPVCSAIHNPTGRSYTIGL
Sequence of human PRMT5/MEP50 (Q9BQA1 whole entry partner): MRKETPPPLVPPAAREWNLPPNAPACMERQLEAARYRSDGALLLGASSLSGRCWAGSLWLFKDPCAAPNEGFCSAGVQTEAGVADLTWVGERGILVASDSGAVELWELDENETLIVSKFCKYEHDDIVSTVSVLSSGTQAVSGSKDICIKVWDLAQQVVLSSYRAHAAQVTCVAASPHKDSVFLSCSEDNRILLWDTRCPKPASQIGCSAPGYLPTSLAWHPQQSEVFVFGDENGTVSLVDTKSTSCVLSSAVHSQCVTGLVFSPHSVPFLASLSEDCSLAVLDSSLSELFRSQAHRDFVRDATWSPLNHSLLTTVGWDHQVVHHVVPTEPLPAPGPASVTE

SMILES | IC50
O=C(NC[C@H](O)CN1CCc2ccccc2C1)N1CCC[C@@H](c2ccccc2)C1 (single isomer, unassigned) [Example 5A, (S)-N-((S)-3-(3,4-dihydroisoquinolin-2(1H)-yl)-2-hydroxypropyl)-3-phenylpiperidine-1-carboxamide or (R)-N-((S)-3-(3,4-dihydroisoquinolin-2(1H)-yl)-2-hydroxypropyl)-3-phenylpiperidine-1-carboxamide] | 26 nM
O=C(NC[C@H](O)CN1CCc2ccccc2C1)N1CCC[C@@H](c2ccccc2)C1 (single isomer, unassigned) [Example 5B, (S)-N-((S)-3-(3,4-dihydroisoquinolin-2(1H)-yl)-2-hydroxypropyl)-3-phenylpiperidine-1-carboxamide or (R)-N-((S)-3-(3,4-dihydroisoquinolin-2(1H)-yl)-2-hydroxypropyl)-3-phenylpiperidine-1-carboxamide] | 599 nM
O=C(NC[C@H](O)CN1CCc2ccccc2C1)N1CCS[C@@H](c2ccccc2)C1 (single isomer, unassigned) [Example 5C, (S)-N-((S)-3-(3,4-dihydroisoquinolin-2(1H)-yl)-2-hydroxypropyl)-2-phenylthiomorpholine-4-carboxamide or (R)-N-((S)-3-(3,4-dihydroisoquinolin-2(1H)-yl)-2-hydroxypropyl)-2-phenylthiomorpholine-4-carboxamide] | 17 nM
O=C(NC[C@H](O)CN1CCc2ccccc2C1)N1CCS[C@@H](c2ccccc2)C1 (single isomer, unassigned) [Example 5D, (S)-N-((S)-3-(3,4-dihydroisoquinolin-2(1H)-yl)-2-hydroxypropyl)-2-phenylthiomorpholine-4-carboxamide or (R)-N-((S)-3-(3,4-dihydroisoquinolin-2(1H)-yl)-2-hydroxypropyl)-2-phenylthiomorpholine-4-carboxamide] | 101 nM
O=C(NC[C@H](O)CN1CCc2ccccc2C1)N1CCC[C@H](c2ccccn2)C1 (single isomer, unassigned) [Example 5E, (S)-N-((S)-3-(3,4-dihydroisoquinolin-2(1H)-yl)-2-hydroxypropyl)-3-(pyridin-2-yl)piperidine-1-carboxamide or (R)-N-((S)-3-(3,4-dihydroisoquinolin-2(1H)-yl)-2-hydroxypropyl)-3-(pyridin-2-yl)piperidine-1-carboxamide] | 81 nM
O=C(NC[C@H](O)CN1CCc2ccccc2C1)N1CCC[C@H](c2ccccn2)C1 (single isomer, unassigned) [Example 5F, (S)-N-((S)-3-(3,4-dihydroisoquinolin-2(1H)-yl)-2-hydroxypropyl)-3-(pyridin-2-yl)piperidine-1-carboxamide or (R)-N-((S)-3-(3,4-dihydroisoquinolin-2(1H)-yl)-2-hydroxypropyl)-3-(pyridin-2-yl)piperidine-1-carboxamide] | 97 nM
O=C(NC[C@H](O)CN1CCc2ccccc2C1)N1CCC[C@H](C2CCOCC2)C1 (single isomer, unassigned) [Example 5G, (R)-N-((S)-3-(3,4-dihydroisoquinolin-2(1H)-yl)-2-hydroxypropyl)-3-(tetrahydro-2H-pyran-4-yl)piperidine-1-carboxamide compound or (S)-N-((S)-3-(3,4-dihydroisoquinolin-2(1H)-yl)-2-hydroxypropyl)-3-(tetrahydro-2H-pyran-4-yl)piperidine-1-carboxamide] | 394 nM
O=C(NC[C@H](O)CN1CCc2ccccc2C1)N1CCC[C@H](C2CCOCC2)C1 (single isomer, unassigned) [Example 5H, (R)-N-((S)-3-(3,4-dihydroisoquinolin-2(1H)-yl)-2-hydroxypropyl)-3-(tetrahydro-2H-pyran-4-yl)piperidine-1-carboxamide compound or (S)-N-((S)-3-(3,4-dihydroisoquinolin-2(1H)-yl)-2-hydroxypropyl)-3-(tetrahydro-2H-pyran-4-yl)piperidine-1-carboxamide] | 511 nM
O=C(NC[C@H](O)CN1CCc2ccccc2C1)N1CCCC(c2ccccc2)C1 (stereo partly drawn) [Example 1AG, (S)-N-((S)-3-(3,4-dihydroisoquinolin-2(1H)-yl)-2-hydroxypropyl)-3-phenylpiperidine-1-carboxamide] | 185 nM
O=C(NC[C@@H](O)CN1CCc2ccccc2C1)N1CCC[C@@H](c2ccccc2)C1 [Example 1AI, (S)-N-((R)-3-(3,4-dihydroisoquinolin-2(1H)-yl)-2-hydroxypropyl)-3-phenylpiperidine-1-carboxamide] | 3220 nM
O=C(NC[C@H](O)CN1CCc2ccccc2C1)N1CCC[C@@H](c2ccccc2)C1 [Example 1AN, (S)-N-((S)-3-(3,4-dihydroisoquinolin-2(1H)-yl)-2-hydroxypropyl)-3-phenylpiperidine-1-carboxamide] | 14 nM
O=C(NC[C@H](O)CN1CCc2ccccc2C1)N1CCC[C@H](c2ccccc2)C1 [Example 1AO, (R)-N-((S)-3-(3,4-dihydroisoquinolin-2(1H)-yl)-2-hydroxypropyl)-3-phenylpiperidine-1-carboxamide] | 9 nM
O=C(NC[C@H](O)CN1CCc2ccccc2C1)N1CCCSCC1 [Example 1AT, (S)-N-(3-(3,4-dihydroisoquinolin-2(1H)-yl)-2-hydroxypropyl)-1,4-thiazepane-4-carboxamide] | 691 nM

Other lines, results leading:

IC50 | SMILES
290 nM | O=C(NCC(O)CN1CCc2ccccc2C1)N1CCC(c2ccccc2)C1 (stereo not shown) [Example 1A, N-(3-(3,4-dihydroisoquinolin-2(1H)-yl)-2-hydroxypropyl)-3-phenylpyrrolidine-1-carboxamide]
342 nM | O=C(NCC(O)CN1CCc2sccc2C1)N1CCc2ccccc2C1 (stereo not shown) [Example 1AA, N-(3-(6,7-dihydrothieno[3,2-c]pyridin-5(4H)-yl)-2-hydroxypropyl)-3,4-dihydroisoquinoline-2(1H)-carboxamide]
384 nM | O=C(NCC(O)CN1CCc2sccc2C1)N1CCCC(c2ccccc2)C1 (stereo not shown) [Example 1AC, N-(3-(6,7-dihydrothieno[3,2-c]pyridin-5(4H)-yl)-2-hydroxypropyl)-3-phenylpiperidine-1-carboxamide]
652 nM | O=C(NCC(O)CN1CCc2ccsc2C1)N1CCCC(c2ccccc2)C1 (stereo not shown) [Example 1AD, N-(3-(4,7-dihydrothieno[2,3-c]pyridin-6(5H)-yl)-2-hydroxypropyl)-3-phenylpiperidine-1-carboxamide]
72 nM | O=C(NCC(O)CN1CCc2sccc2C1)N1CCC(c2ccccc2)C1 (stereo not shown) [Example 1AE, N-(3-(6,7-dihydrothieno[3,2-c]pyridin-5(4H)-yl)-2-hydroxypropyl)-3-phenylpyrrolidine-1-carboxamide]
80 nM | O=C(NC[C@H](O)CN1CCc2ccccc2C1)N1CCCc2ccccc21 [Example 1AJ, (S)-N-(3-(3,4-dihydroisoquinolin-2(1H)-yl)-2-hydroxypropyl)-3,4-dihydroquinoline-1(2H)-carboxamide]
5980 nM | O=C(NC[C@@H](O)CN1CCc2ccccc2C1)N1CCCc2ccccc21 [Example 1AK, (R)-N-(3-(3,4-dihydroisoquinolin-2(1H)-yl)-2-hydroxypropyl)-3,4-dihydroquinoline-1(2H)-carboxamide]
30 nM | O=C(NC[C@H](O)CN1CCc2ccccc2C1)N1CCc2ccccc2C1 [Example 1AL, (S)-N-(3-(3,4-dihydroisoquinolin-2(1H)-yl)-2-hydroxypropyl)-3,4-dihydroisoquinoline-2(1H)-carboxamide]
1500 nM | O=C(NC[C@@H](O)CN1CCc2ccccc2C1)N1CCc2ccccc2C1 [Example 1AM, (R)-N-(3-(3,4-dihydroisoquinolin-2(1H)-yl)-2-hydroxypropyl)-3,4-dihydroisoquinoline-2(1H)-carboxamide]
484 nM | CC(=O)N1CCCN(C(=O)NC[C@H](O)CN2CCc3ccccc3C2)CC1 [Example 1AP, (S)-4-acetyl-N-(3-(3,4-dihydroisoquinolin-2(1H)-yl)-2-hydroxypropyl)-1,4-diazepane-1-carboxamide]
77 nM | CS(=O)(=O)N1CCCN(C(=O)NC[C@H](O)CN2CCc3ccccc3C2)CC1 [Example 1AQ, (S)-N-(3-(3,4-dihydroisoquinolin-2(1H)-yl)-2-hydroxypropyl)-4-(methylsulfonyl)-1,4-diazepane-1-carboxamide]
658 nM | O=C(NC[C@H](O)CN1CCc2ccccc2C1)N1CCCN(C(=O)c2ccccc2)CC1 [Example 1AR, (S)-4-benzoyl-N-(3-(3,4-dihydroisoquinolin-2(1H)-yl)-2-hydroxypropyl)-1,4-diazepane-1-carboxamide]
112 nM | COC(=O)N1CCCN(C(=O)NC[C@H](O)CN2CCc3ccccc3C2)CC1 [Example 1AS, Methyl (S)-4-((3-(3,4-dihydroisoquinolin-2(1H)-yl)-2-hydroxypropyl)carbamoyl)-1,4-diazepane-1-carboxylate]
31200 nM | O=C(NC[C@H](O)CN1CCc2ccccc2C1)N1CCC[S+]([O-])CC1 (stereo partly drawn) [Example 1AU, N-((S)-3-(3,4-dihydroisoquinolin-2(1H)-yl)-2-hydroxypropyl)-1,4-thiazepane-4-carboxamide 1-oxide]
3140 nM | O=C(NC[C@H](O)CN1CCc2ccccc2C1)N1CCCS(=O)(=O)CC1 [Example 1AV, (S)-N-(3-(3,4-dihydroisoquinolin-2(1H)-yl)-2-hydroxypropyl)-1,4-thiazepane-4-carboxamide 1,1-dioxide]
